This assay has as its target T1, human leukocyte elastase (HLE) (Homo sapiens, UniProt P08246).
T1 construct: purchased Calbiochem
T1 sequence (P08246 30-267): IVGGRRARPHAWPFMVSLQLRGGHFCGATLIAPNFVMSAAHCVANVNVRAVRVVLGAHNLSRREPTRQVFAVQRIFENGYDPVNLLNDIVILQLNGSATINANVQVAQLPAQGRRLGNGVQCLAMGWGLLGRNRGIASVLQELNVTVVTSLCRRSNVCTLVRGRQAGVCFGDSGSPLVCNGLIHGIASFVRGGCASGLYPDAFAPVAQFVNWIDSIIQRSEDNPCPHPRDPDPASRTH
Put plainly: Kinetic parameters of HLE inhibition, fluorogenic substrate N-methoxysuccinyl-alanyl-alanyl-prolyl-valyl-7-amido-4-methylcoumarin. To be noted: HLE (Calbiochem), 37°C, phosphate buffer pH 7.4, I= 0.15, 1% DMSO and 1% MeCN; for Ki: apparent dissociation constant of HLE-inhibitor complex at steady state; for k₅/Ki: rate of formation of HLE-inhibitor complex. It counts as biochemical. An excerpt:
The inhibitory activity on human leukocyte elastase (HLE) of Δ-cephem sulphones of the invention, designated as Compound 4 and Compound 5 in Table 1 above, and of the Δ³-cephem sulphone Merck S.&D. L-659,286, which, to our best knowledge, is the most advanced β-lactam product under study as an HLE-inhibitor (Ann. Rev. Resp. Dis. 1988, 137:204; Journal of Cellular Biochemistry 1989, 39:47), was compared as described below.
The reference compound 7α-methoxy-3-(2-methyl-5-oxo-6-hydroxy-2,5-dihydro-1,2,4-triazin-3-yl)thiomethyl-3-cephem-4-pyrrolidine-carboxamide-1,1-dioxide (Merck's code-name; L-659,286) was synthesized in our laboratories from 7-amino-3-desacetoxy-cephalosporanic acid. Its structural identity and purity (≥95%) was confirmed by spectral and analytical data.
The kinetic parameters of HLE (Calbiochem) inhibition were determined at 37°C in phosphate buffer (pH 7.4, I= 0.15) with 1% DMSO and 1% MeCN as solubilizing vehicles, monitoring fluorometrically (λex= 383 nm; λem = 455 nm) the release of 7-amino-4-methylcoumarin from the fluorogenic substrate N-methoxysuccinyl-alanyl-alanyl-prolyl-valyl-7-amido-4-methylcoumarin. Best fit to the progress curves was obtained by a two-step mechanism (mechanism B in J.F. Morrison, TIBS 1982, 7:102; see also J.F. Morrison and C.T. Walsh, Advances in Enzymology, vol. 61, A. Meister editor, John Wiley & Sons 1988): [drawing 9] Product release versus time was analysed using the following function: [P] = vs t + (vi -vs (1-e)^-kt )/k [formula] wherein [P] = product concentration, vs = steady state rate, vi = initial rate of product release and k = k6 + (k5 /Ki )([I])/(1 + [S]/Km + [I]/Ki); Ki = k4 /k3 [formula] wherein [I] and [S] = inhibitor and substrate concentration, and Km = Michaelis constant for the enzymesubstrate pair (independently determined under the same experimental conditions). At steady state, inhibition is fully determined by the steady-state inhibition constant Ki* (steady state): Ki * = Ki (k6)/(k5 + k6) [formula]

Each structure is given as a SMILES string.

Turning to `CO[C@H]1C(=O)N2C(C(=O)N3CCCC3)=C(CSc3nc(=O)c(O)nn3C)CS(=O)(=O)[C@H]12` [Reference compound, 7α-methoxy-3-(2-methyl-5-oxo-6-hydroxy-2,5-dihydro-1,2,4-triazin-3-yl)thiomethyl-3-cephem-4-pyrrolidine-carboxamide-1,1-dioxide, reference compound], the Ki is 140 nM and the k₅/Ki result was “k₅/Ki = 8,000 M⁻¹s⁻¹”.

Take `COC(=O)C1(/C=C\C(=O)OC(C)(C)C)C(C)=CS(=O)(=O)[C@@H]2[C@@H](Cl)C(=O)N21` (stereo partly drawn) [Compound 4, Methyl 7α-chloro-4-[(Z)-2-tert-butoxycarbonylethenyl]-3-methyl-2-cephem-4-carboxylate-1,1-dioxide]: the Ki was 64 nM and the k₅/Ki result is given as “k₅/Ki = 7,200 M⁻¹s⁻¹”.

With `COC(=O)C1(C=CC(=O)OC(C)(C)C)C(C)=C(/C=C/C(=O)OC(C)(C)C)S(=O)(=O)[C@@H]2[C@@H](Cl)C(=O)N21` (stereo partly drawn) [Compound 5, Methyl-7α-Chloro-2,4-bis[2-tert-butoxycarbonylethenyl]-3-methyl-2-cephem-4-carboxylate-1,1-dioxide], the Ki came to 5.2 nM.
